Source: the supplement of paper PMC10307832

Assays:
Experiment in all cases: relative viability (nuclei count vs DMSO), 5 days (fraction); higher = more cells survive
NCI-H23 = details: first compound 0.1 µM
In short: (§1)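 Medians of duplicate plates are given as relative viability. That measure is the nuclei count in treated wells divided by the count in vehicle wells. Counts were taken on 4× images of lung cancer cell lines in 1536-well plates, 5 days after pin-tool dosing the day after seeding with one drug alone or a fixed anchor-drug dose plus five library-drug doses (not always all listed) in √10 steps.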

LOU-NH91 = system: LOU-NH91
In short: as §1

H3255 = system: H3255
In short: as §1

PC-3 [JPC-3] = system: PC-3 [JPC-3]
In short: as §1

HARA = system: HARA
In short: as §1

NCI-H2085 = system: NCI-H2085
In short: as §1

NCI-H2087 = system: NCI-H2087
In short: as §1

NCI-H1650 = system: NCI-H1650
In short: as §1

UMC-11 = system: UMC-11
In short: as §1

NCI-H1975 = system: NCI-H1975
In short: as §1

SW 1573 = system: SW 1573
In short: as §1

NCI-H838 = system: NCI-H838
In short: as §1

## Cc1cn(-c2cc(NC(=O)c3ccc(C)c(Nc4nccc(-c5cccnc5)n4)c3)cc(C(F)(F)F)c2)cn1 [Nilotinib] + Nc1ncn([C@H]2C[C@H](O)[C@@H](CO)O2)c(=O)n1 [Decitabine] (partner 2 µM)
NCI-H23
  relative viability: 0.273
LOU-NH91; first compound 0.001 µM
  relative viability: 0.776
LOU-NH91; first compound 0.003162 µM
  relative viability: 0.864
LOU-NH91; first compound 0.01 µM
  relative viability: 0.889
LOU-NH91; first compound 0.03162 µM
  relative viability: 0.898
LOU-NH91; first compound 0.1 µM
  relative viability: 0.837
H3255; first compound 0.001 µM
  relative viability: 0.549
H3255; first compound 0.003162 µM
  relative viability: 0.659
H3255; first compound 0.03162 µM
  relative viability: 0.667
H3255; first compound 0.1 µM
  relative viability: 0.692
PC-3 [JPC-3]; first compound 0.001 µM
  relative viability: 0.873
PC-3 [JPC-3]; first compound 0.01 µM
  relative viability: 1
PC-3 [JPC-3]; first compound 0.03162 µM
  relative viability: 0.897
PC-3 [JPC-3]; first compound 0.1 µM
  relative viability: 1.01
HARA; first compound 0.001 µM
  relative viability: 0.383
HARA; first compound 0.003162 µM
  relative viability: 0.681
HARA; first compound 0.01 µM
  relative viability: 0.856
HARA; first compound 0.03162 µM
  relative viability: 0.47
HARA; first compound 0.1 µM
  relative viability: 0.649
NCI-H2085; first compound 0.001 µM
  relative viability: 0.591
NCI-H2085; first compound 0.003162 µM
  relative viability: 0.619
NCI-H2085; first compound 0.01 µM
  relative viability: 0.675
NCI-H2085; first compound 0.03162 µM
  relative viability: 0.794
NCI-H2085; first compound 0.1 µM
  relative viability: 0.76
NCI-H2087; first compound 0.001 µM
  relative viability: 0.202
NCI-H2087; first compound 0.003162 µM
  relative viability: 0.244
NCI-H2087; first compound 0.01 µM
  relative viability: 0.261
NCI-H2087; first compound 0.03162 µM
  relative viability: 0.18
NCI-H2087; first compound 0.1 µM
  relative viability: 0.131
NCI-H1650; first compound 0.001 µM
  relative viability: 0.462
NCI-H1650; first compound 0.003162 µM
  relative viability: 0.621
NCI-H1650; first compound 0.01 µM
  relative viability: 0.579
NCI-H1650; first compound 0.03162 µM
  relative viability: 0.588
NCI-H1650; first compound 0.1 µM
  relative viability: 0.757
UMC-11; first compound 0.001 µM
  relative viability: 0.607
UMC-11; first compound 0.003162 µM
  relative viability: 0.591
UMC-11; first compound 0.01 µM
  relative viability: 0.566
UMC-11; first compound 0.03162 µM
  relative viability: 0.551
UMC-11; first compound 0.1 µM
  relative viability: 0.622
NCI-H1975; first compound 0.001 µM
  relative viability: 0.339
NCI-H1975; first compound 0.003162 µM
  relative viability: 0.393
NCI-H1975; first compound 0.01 µM
  relative viability: 0.383
NCI-H1975; first compound 0.03162 µM
  relative viability: 0.389
NCI-H1975; first compound 0.1 µM
  relative viability: 0.275
SW 1573; first compound 0.001 µM
  relative viability: 0.455
SW 1573; first compound 0.003162 µM
  relative viability: 0.622
SW 1573; first compound 0.01 µM
  relative viability: 0.924
SW 1573; first compound 0.03162 µM
  relative viability: 0.533
SW 1573; first compound 0.1 µM
  relative viability: 0.297
NCI-H838; first compound 0.001 µM
  relative viability: 0.44
NCI-H838; first compound 0.003162 µM
  relative viability: 0.532
NCI-H838; first compound 0.01 µM
  relative viability: 0.522
NCI-H838; first compound 0.03162 µM
  relative viability: 0.489
NCI-H838; first compound 0.1 µM
  relative viability: 0.637
